Converted amounts (≈) assume the structure as drawn.
Key:
Assay in all cases: in vitro antibacterial evaluation, MIC by broth dilution
Assay type in all cases: cell-based
Conditions in all cases: broth dilution, 18 hours at 35° C.
Enterococcus sp. = test system: Enterococcus sp.
Method: (§1) Methods for in vitro Antibacterial Evaluation (Table 1)
(§2) The minimum inhibitory concentration (MIC), the lowest concentration of the antibiotic which inhibits growth of the test organism, is determined by the broth dilution method using Muller-Hinton II […] (Baltimore Biological Laboratories) following the recommendations of the National Committee for Clinical Laboratory Standards [Methods for dilution antimicrobial susceptibility tests for bacteria that grow aerobically, approved standard M7-A2, National Committee for Clinical Laboratory Standards, Villanova, Pa.].
(§3) An inoculum level of 5×10^5 CFU/mL, and a range of antibiotic concentrations (64-0.06 μg/mL) is used. […] The test organisms include a spectrum of Gram-positive bacteria comprised of Staphylococcus sp., Streptococcus sp. and Enterococcus sp. These organisms include recent clinical isolates that are resistant to methicillin, penicillin and/or vancomycin.

Staphylococcus sp. = test system: Staphylococcus sp.
Method: as §1, §2, §3

Streptococcus sp. = test system: Streptococcus sp.
Method: as §1, §2, §3

Escherichia coli = test system: Escherichia coli
Summary of the method: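 MIC is the lowest antibiotic concentration (tested 64-0.06 μg/mL) preventing growth of a 5×10^5 CFU/mL inoculum. Determined by broth dilution in Mueller-Hinton II medium following NCCLS standard M7-A2.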

With CC(c1ccccc1)C1NC(=O)CNC(=O)C(CO)NC(=O)C(C(O)C2CNC(=N)N2C2OC(CO)C(O)C(O)C2O)NC(=O)C(C(O)C2CNC(=N)N2)NC(=O)C(Cc2ccc3oc(-c4ccc(C(C)(C)C)cc4)nc3c2)NC1=O (stereo not drawn) [Example 32, Cyclo[3-[2-(4-tert-butylphenyl)-1,3-benzoxazol-5-yl]alanyl-3-(2-iminoimidazolidin-4-yl)seryl-3-(3-hexopyranosyl-2-iminoimidazolidin-4-yl)serylserylglycyl-β-methylphenylalanyl]] the “MIC Enterococcus faecalis (ATCC 29212)” value (Enterococcus sp.; strain ATCC 29212) was 8 µg/mL (≈ 7.09 µM), the “MIC Enterococcus faecalis (GC 2242)” value (Enterococcus sp.; strain GC 2242) was 4 µg/mL (≈ 3.55 µM) and the “MIC Enterococcus faecium (GC 2243)” value (Enterococcus sp.; strain GC 2243) was 4 µg/mL (≈ 3.55 µM). For the same compound, the “MIC Enterococcus faecalis (GC 2691)” value (Enterococcus sp.; strain GC 2691) was 8 µg/mL (≈ 7.09 µM), the “MIC Enterococcus faecalis (GC 3059)” value (Enterococcus sp.; strain GC 3059) was 8 µg/mL (≈ 7.09 µM) and the “MIC Enterococcus faecalis (GC 4552)” value (Enterococcus sp.; strain GC 4552) was 8 µg/mL (≈ 7.09 µM). For the same compound, the “MIC Enterococcus faecalis (GC 4553)” value (Enterococcus sp.; strain GC 4553) was 8 µg/mL (≈ 7.09 µM), the “MIC Enterococcus faecalis (GC 4554)” value (Enterococcus sp.; strain GC 4554) was 4 µg/mL (≈ 3.55 µM) and the “MIC Enterococcus faecium (GC 4556)” value (Enterococcus sp.; strain GC 4556) was 8 µg/mL (≈ 7.09 µM). For the same compound, the “MIC Enterococcus faecium (GC 4557)” value (Enterococcus sp.; strain GC 4557) was 2 µg/mL (≈ 1.77 µM), the “MIC Enterococcus avium (GC 4558)” value (Enterococcus sp.; strain GC 4558) was 4 µg/mL (≈ 3.55 µM) and the “MIC Enterococcus faecalis (GC 6189)” value (Enterococcus sp.; strain GC 6189) was 4 µg/mL (≈ 3.55 µM). For the same compound, the “MIC Staphylococcus aureus (ATCC 29213)” value (Staphylococcus sp.; strain ATCC 29213) was 4 µg/mL (≈ 3.55 µM), the “MIC Staphylococcus aureus (GC 1131)” value (Staphylococcus sp.; strain GC 1131) was 2 µg/mL (≈ 1.77 µM) and the “MIC Staphylococcus aureus (GC 3051)” value (Staphylococcus sp.; strain GC 3051) was 2 µg/mL (≈ 1.77 µM). For the same compound, the “MIC Staphylococcus aureus (GC 3053)” value (Staphylococcus sp.; strain GC 3053) was 4 µg/mL (≈ 3.55 µM), the “MIC Staphylococcus aureus (GC 4541)” value (Staphylococcus sp.; strain GC 4541) was 2 µg/mL (≈ 1.77 µM) and the “MIC Staphylococcus aureus (GC 4542)” value (Staphylococcus sp.; strain GC 4542) was 2 µg/mL (≈ 1.77 µM). The “MIC Staphylococcus aureus-SMITH (GC 4543)” value (Staphylococcus sp.; strain GC 4543) was 2 µg/mL (≈ 1.77 µM), the “MIC Staphylococcus aureus (GC 4544)” value (Staphylococcus sp.; strain GC 4544) was 2 µg/mL (≈ 1.77 µM) and the “MIC Staphylococcus aureus (GC 4545)” value (Staphylococcus sp.; strain GC 4545) was 2 µg/mL (≈ 1.77 µM). For the same compound, the “MIC Staphylococcus haemolyticus (GC 4546)” value (Staphylococcus sp.; strain GC 4546) was 2 µg/mL (≈ 1.77 µM), the “MIC Coagulase Negative Staphylococcus (GC 4547)” value (Staphylococcus sp.; strain GC 4547) was 2 µg/mL (≈ 1.77 µM) and the “MIC Coagulase Negative Staphylococcus (GC 4548)” value (Staphylococcus sp.; strain GC 4548) was 1 µg/mL (≈ 0.886 µM). For the same compound, the “MIC Coagulase Negative Staphylococcus (GC 4549)” value (Staphylococcus sp.; strain GC 4549) was 2 µg/mL (≈ 1.77 µM), the “MIC Coagulase Negative Staphylococcus (GC 4551)” value (Staphylococcus sp.; strain GC 4551) was 4 µg/mL (≈ 3.55 µM) and the “MIC Coagulase Negative Staphylococcus (GC 6257)” value (Staphylococcus sp.; strain GC 6257) was 2 µg/mL (≈ 1.77 µM). The “MIC Streptococcus pneumoniae (ATCC 6301)” value (Streptococcus sp.; strain ATCC 6301) was 16 µg/mL (≈ 14.2 µM), the “MIC Streptococcus pneumoniae (GC 1894)” value (Streptococcus sp.; strain GC 1894) was 16 µg/mL (≈ 14.2 µM) and the “MIC Streptococcus pyogenes (GC 4563)” value (Streptococcus sp.; strain GC 4563) was 8 µg/mL (≈ 7.09 µM). The “MIC Streptococcus agalactiae (GC 4564)” value (Streptococcus sp.; strain GC 4564) was 16 µg/mL (≈ 14.2 µM), the “MIC Streptococcus pneumoniae (GC 4565)” value (Streptococcus sp.; strain GC 4565) was 16 µg/mL (≈ 14.2 µM) and the “MIC Escherichia coli (ATCC 25922)” value (Escherichia coli; strain ATCC 25922) was 16 µg/mL (≈ 14.2 µM). For the same compound, the “MIC Escherichia coli (GC 4559)” value (Escherichia coli; strain GC 4559) was 16 µg/mL (≈ 14.2 µM) and the “MIC Escherichia coli (GC 4560)” value (Escherichia coli; strain GC 4560) was 4 µg/mL (≈ 3.55 µM).

From patent US6914045B2, “Glycopeptide antibiotics” (Wyeth Holdings Corporation, priority 2001, dated 2005)
